Tests used:
[1] = test system: mutp53^R175H; assay: ELISA of mutp53 conformation (PAb1620/PAb240), H1299-p53^R175H cell extract; assay type: biochemical, human; settings: for reactivity of p53^R175H with PAb1620 and PAb240: H1299-p53^R175H cell extract, Figure 2A; for Conform H1299: score 0-6 compared to positive control, mutp53 conformation
Description: A total of close to 350 peptides, deduced from the phage sequences, were synthesized and subjected to several alternative complementary methods of semi high-throughput functional screening; we refer to these peptides as pCAPs (p53 conformation activating peptides). First, we used cell-free ELISA assays to evaluate the effect of individual peptides on mutp53 conformation and DNA binding in vitro. For conformation analysis (Figure 2A), microtiter plates were coated with PAb240, PAb1620 or PAb421 as control, then the effect of each peptide on reactivity of mutp53 with these antibodies was examined; WTp53 served as a positive control for PAb1620 reactivity.
Cell extracts were added to ELISA plates coated with the indicated antibodies to allow mutp53 to react with the peptides and antibodies. αp53-HRP Ab was used for assessment of p53 levels. Numbers represent ratio of absorbance between the PAb1620 and PAb240 samples. All reads were normalized to the control […] reading of each extract. MCF7 (WTp53) and H1299-mutp53^A135V (tsp53) cells were used as positive controls for the WTp53 conformation (1620/240 ratio equals or exceeds 5:1). […] 96 well plates were coated with anti-p53 antibody, cell extracts containing p53 were reacted with oligonucleotides that contain a p53RE consensus binding site, labeled with biotin, in the presence or absence (NT) of test peptides. Streptavidin-HRP is used to quantify the amount of oligos in the well. TMB assay was performed to determine bound mutp53 levels (450nm). MCF7 and the H1299-mutp53^A135V(TS) cells serve as positive controls for WTp53. C.and D. - Bar graphs illustrating the effect of various selected peptides on mut-p53 dependent expression on cell viability. […] D, ES2 cells expressing endogenous mutp53 (blue bars) and ES2 cells knocked out for p53 by CRISPR construct (light blue bars). Cell lines were treated with selected peptides, Cis-platinum was used as positive control for cell death. 48 hours after treatment, cells were washed with PBS, and the remaining attached cells were stained with Crystal violet and washed 4 times with PBS. Stained cells were dissolved in 10% acetic acid and plates were taken for optical density measurement at […]. TEXT PRINTED IN THE PICTURE: (A) pCAP1: 0.87 | (A) pCAP2: 0.53 | (A) pCAP3: 0.59 | (A) pCAP4: 0.59 | (A) pCAP5: 0.60 | (A) pCAP6: 0.75 | (A) pCAP23: 1.06 | (A) pCAP24: 1.44 | (A) pCAP36: 1.25 | (A) pCAP47: 1.54 | (A) pCAP54: 1.54 | (A) pCAP60: 2.73 | (A) pCAP68: 2.22 | (A) pCAP83: 1.56 | (A) pCAP97: 2.45 DOUBTS OF THE COPYIST ABOUT THIS PICTURE: Panel A: the numbers over the bars are printed very small, rotated and blurred, so 3, 5, 6, 8 and 9 cannot be told apart with certainty. All values are best readings: pCAP1 0.87, pCAP2 0.53, pCAP3 0.59, pCAP4 0.59, pCAP5 0.60, pCAP6 0.75, pCAP23 1.06, pCAP24 1.44, pCAP36 1.25, pCAP47 1.54, pCAP54 1.54, pCAP60 2.73, pCAP68 2.22, pCAP83 1.56, pCAP97 2.45 / Panel A: the picture prints no measure with the numbers over the bars, so they are given as bare numbers / Panel A: numbers are also printed over the controls, which are not substances and are left out of lines. Best readings: NT 0.60, 60° 30'' 0.48, 60° 1' 0.37, 60° 3' 0.13, 60° 10' 0.05, MCF7 3.32, H1299TS 3.25
Extracts were prepared at a concentration of 750ng/μl and then reacted for 2 hours with different peptides. Plates coated with the different antibodies were then washed and blocked, and extracts pre-incubated either with or without peptides were added for two additional hours. After removal of extracts, plates were washed and incubated with HRP-conjugated anti-p53 antibody. Finally, HRP activity was quantified by optical density at 450nm. MCF7 cells (expressing WTp53) and H1299-tsp53^A135V cells, stably expressing a temperature sensitive p53 mutant that has mutant conformation at 37°C but WT conformation at 32°C [31], were used as positive controls for the WTp53 conformation (1620/240 ratio 5:1). […]

[2] = test system: SK3; assay: Crystal violet viability assay, SK3; assay type: cell-based, human; design: key: score 0- no effect-white; score 6- as or more effective than positive control- black; settings: score 0-6 compared to positive control, 48 h
Description: (§1) We also performed a similar analysis on ES2 ovarian cancer cells, which express endogenous mp53^S241F, compared to ES2 cells in which p53 was stably knocked out using CRISPR/Cas9 (ES2 p53KO Figure S1F), to control for specificity for mutp53 (Figure 2D). In ES2 cells, too, some of the peptides caused a significant reduction in cell numbers, more prominent in the mutp53 expressing cells than in their p53KO counterparts. […] Overall, we performed this analysis on several different mutp53-expressing human cancer cell lines, and the results are summarized in Table S3. Based on this comprehensive picture, we reduced the number of most promising candidate lead peptides to 30. These peptides were then synthesized with an 8 arginine C-terminal tail for enhanced delivery across cell membranes (pCAPs 130-160); for clarity, peptides are referred to by their original number, with an R for poly arginine (see Table S3).
(§2) Cells were cultured in 96 wells plates with 2500-4000 cells/well. Serial dilutions of different peptides were added and the plates incubated for additional 48 h at 37°C. Then medium was removed and cell viability was determined by staining the cells with crystal violet (0.05%) in methanol/PBS (1:5, v/v), for 10 min, followed by 3 washes with PBS. 10% acetic acid was added to each well for 10 min. OD was determined at 595 nm.

[3] = test system: p53 target genes in MDA231; assay: Induction of p53 target genes by qRT-PCR, MDA231; assay type: cell-based, human; design: key: score 0- no effect-white; score 6- as or more effective than positive control- black; settings: score 0-6 compared to positive control
Procedure: RNA was obtained using Macherey-Nagel NucleoSpin RNA II Kit on cells pellet according to the manufacturer's protocol. Aliquots of 0.4-1 μg were reverse transcribed using Bio-RT 2000 (Bio-Lab) and random hexamer primers. QRT-PCR was performed on an ABI 7300 instrument (Applied Biosystems) using SYBR Green FastMix ROX (Quanta). RT-PCR primers (All primers sequences are presented 5′ to 3′): […]

[4] = test system: mutp53; assay: Summary score of peptide functional screens; settings: overall score over conformation, DNA binding, viability and PCR screens
[5] = test system: MDA; assay: Crystal violet viability assay, MDA; assay type: cell-based, human; settings: score 0-6 compared to positive control, 48 h
Description: as §1, §2

[6] = test system: WI38; assay: Crystal violet viability assay, WI38; assay type: cell-based; design: key: score 0- no effect-white; score 6- as or more effective than positive control- black; settings: score 0-6 compared to positive control, 48 h
Procedure: as §2

Substance | reactivity of p53^R175H with PAb1620 and PAb240 [1] | Viability SK3 [2] | PCR MDA231 [3] | SCORE [4] | Conform H1299 [1] | Viability MDA [5] | Viability WI38 [6]
SFILFIRRGRLG [pCAP-60] | increased the reactivity of p53^R175H with PAb1620 and decreased its reactivity with PAb240 | 3 | 2 | 26 | – | – | –
WNHHHSTPHPAH [pCAP-97] | increased the reactivity of p53^R175H with PAb1620 and decreased its reactivity with PAb240 | – | 3 | 39 | 1 | 4 | 4
myr-RRKHNKHRPEPDSDER [pCAP-221] | – | 5 | 4 | 58 | – | 5 | 6
myr-RRIRDPRILLLHFD [pCAP-325] | – | 3 | 6 | 53 | – | 4 | 6
myr-RRKILFIRLMHNKH [pCAP-227, myristoylated peptide, similarity to GAS2] | – | 6 | 3 | 56 | 2 | 3 | 3
myr-PRVLPSPHTIHPSQYP [pCAP-229, myristoylated peptide, similarity to HIPK2] | – | 3 | 3 | 35 | – | – | 3
WNHHHSTPHPAHRRRRRR [pCAP-97R, pCAP-97 with poly arginine tail] | – | 3 | 3 | 46 | 1 | 4 | 4
HSSHHHPVHSWN [pCAP-83] | – | – | – | 27 | 4 | – | 3
EVTFRHSVV [pCAP-1, randomly selected peptide used as inert comparison] | – | 3 | – | 19 | – | – | –
YRRLLIGMMWRRRRRRRRR [pCAP-68] | increased the reactivity of p53^R175H with PAb1620 and decreased its reactivity with PAb240 | – | 2 | 37 | 4 | 4 | –
LRCLLLLIGRVGRRRRRRRR [pCAP-24R, pCAP-24 with poly arginine tail] | – | 2 | – | 34 | 3 | 4 | –
IRGRIIRRRRRRRRR [pCAP-54R, pCAP-54 with poly arginine tail] | – | 4 | – | 28 | 1 | 4 | 4
HANLHHT [pCAP-87] | – | – | 4 | 32 | 3 | – | –
IRILMFLIGCGRRRRRRRRR [pCAP-23R, pCAP-23 with poly arginine tail] | – | 3 | – | 24 | 2 | – | 2
myr-RRLIVRILKLPNPPER [pCAP-242] | – | 5 | 2 | 55 | 2 | 3 | 4
LRCLLLLIGRVG [pCAP-24] | – | – | – | 23 | 3 | – | –
IRILMFLIGCGR [pCAP-23] | – | 3 | – | 21 | 2 | – | –
HHPWTHHQRWS [pCAP-20] | – | 3 | – | 19 | 2 | – | –
YPTQGHLR [pCAP-36] | – | – | – | 32 | 5 | 4 | 4
SFILFIRRGRLGRRRRRRRRR [pCAP-60R, pCAP-60 with poly arginine tail] | – | 5 | – | 32 | – | – | 2
IRGRIIR [pCAP-54] | increased the reactivity of p53^R175H with PAb1620 and decreased its reactivity with PAb240 | 4 | – | 23 | 3 | 4 | 4
LHSKTLVL [pCAP-17] | – | 3 | – | 20 | 2 | – | –
